Source: PMC7279487, “Dual Target Ligands with 4-tert-Butylphenoxy Scaffold as Histamine H3 Receptor Antagonists and Monoamine Oxidase B Inhibitors” (International Journal of Molecular Sciences, 2020)

How the values were obtained:
hMAO B [1] = target: T1, hMAO B (Homo sapiens, UniProt P27338); test: hMAO B inhibition, fluorometric Amplex Red MAO assay; assay type: biochemical
T1 construct: purchased Sigma Aldrich M7441
T1 sequence (P27338 1-520): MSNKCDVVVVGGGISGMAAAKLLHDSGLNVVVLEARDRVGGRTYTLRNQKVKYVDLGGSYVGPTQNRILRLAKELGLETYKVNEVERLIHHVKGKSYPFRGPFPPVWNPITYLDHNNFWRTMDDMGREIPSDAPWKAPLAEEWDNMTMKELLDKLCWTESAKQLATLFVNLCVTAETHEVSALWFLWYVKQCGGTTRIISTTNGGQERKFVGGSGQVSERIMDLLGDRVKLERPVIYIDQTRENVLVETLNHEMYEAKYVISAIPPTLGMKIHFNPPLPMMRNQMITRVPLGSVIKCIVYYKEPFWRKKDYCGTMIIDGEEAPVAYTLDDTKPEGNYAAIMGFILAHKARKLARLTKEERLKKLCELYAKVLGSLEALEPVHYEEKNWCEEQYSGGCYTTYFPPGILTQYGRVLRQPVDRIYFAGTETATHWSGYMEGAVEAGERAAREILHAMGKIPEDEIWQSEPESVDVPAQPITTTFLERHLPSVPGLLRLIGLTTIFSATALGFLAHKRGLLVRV

[2] = system: neuroblastoma SH-SY5Y cells; test: toxicity against SH-SY5Y cells; assay type: cell-based; details: 10 and 50 µM
Procedure: The used reference cytostatic drug doxorubicin (DX) decreased cell viability <50% under the same conditions at very low concentrations of 0.2 and 0.05 µM. […] Oxidative damage was induced by very high toxic levels of hydrogen peroxide (H2O2; 300 µM), the popular cell model for PD research, in neuroblastoma SH-SY5Y cell line. […] Salsolinol (SAL) was used at a concentration of 50 µM as the reference compound with the proven neuroprotection activity.
SH-SY5Y cells were seeded in microplate at a concentration of 2.5 × 10^4 cells/well in 100 μL culture medium and cultured for 24 h at 37 C and 5% CO2 to reach 70% confluence. […] (R,S)-salsolinol (purity ≥ 99%) was obtained from Cayman Chemical (Ann Arbor, MI, USA). Next, H2O2 was added at final concentration 300 μM and the cells were placed into the incubator. After 24 h of compounds co-incubation with H2O2, the CellTiter 96®AQueous Non-Radioactive Cell Proliferation Assay (MTS) labeling mixture was added to each well, and the microplates were incubated under the same conditions for 5 h. The absorbance was measured using a microplate reader EnSpire (PerkinElmer, Waltham, MA USA) at 490 nm. All measurements were performed in triplicate, and results are shown as mean ± SD.

human MAO A = target: T2, human MAO A (Homo sapiens, UniProt P21397); test: hMAO A inhibition, fluorometric Amplex Red MAO assay; assay type: biochemical; details: mean ± SEM; p-tyramine 200 μM
T2 construct: purchased Sigma Aldrich M7316
T2 sequence (P21397 1-527): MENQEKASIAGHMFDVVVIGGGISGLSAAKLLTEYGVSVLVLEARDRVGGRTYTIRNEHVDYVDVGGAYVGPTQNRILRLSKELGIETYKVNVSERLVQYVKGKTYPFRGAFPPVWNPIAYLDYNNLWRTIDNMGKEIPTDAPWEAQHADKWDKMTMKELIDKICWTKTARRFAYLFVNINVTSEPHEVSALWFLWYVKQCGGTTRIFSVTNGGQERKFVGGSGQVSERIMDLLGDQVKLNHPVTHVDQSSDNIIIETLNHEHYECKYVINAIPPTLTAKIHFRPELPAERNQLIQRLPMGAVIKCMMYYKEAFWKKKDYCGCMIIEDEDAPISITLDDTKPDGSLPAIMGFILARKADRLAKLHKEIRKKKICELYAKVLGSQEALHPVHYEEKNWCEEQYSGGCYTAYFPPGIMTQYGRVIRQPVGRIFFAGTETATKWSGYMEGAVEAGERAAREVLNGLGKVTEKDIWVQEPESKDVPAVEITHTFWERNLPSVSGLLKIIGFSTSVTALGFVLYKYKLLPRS
Procedure: Inhibitory potency of compounds on MAO isoenzymes were carried out by a fluorometric method with a commercial Amplex™ Red Monoamine Oxidase Assay Kit (ThermoFisher Scientific A12214, Waltham, MA, USA) as described previously. For all tests, recombinant human MAO B and MAO A (from Sigma AldrichM7441 and M7316, Darmstadt, Germany) were used. Inhibitors’ activity was measured in the presence of p-tyramine (200 μM).
[…] […] All calculations were made in Microsoft Excel and GraphPadPrism software. All experiments were performed in duplicate, and data are expressed as mean ± SEM of 2–5 independent experiments.

hMAO B [3] = target: T1, hMAO B; test: hMAO B kinetic studies (Michaelis-Menten, Lineweaver-Burk); assay type: biochemical
Procedure: Results from the kinetic experiment were used for determination of Michaelis–Menten curves (Figure 4A,C). […] From Michaelis–Menten curves, Vmax and KM values were fitted (Table 2). For both compounds, Vmax values decreased curvilinearly and KM values increased curvilinearly with the increased inhibitor concentrations.
The mode of the inhibition was tested according to the standard procedure described in Reversibility Studies using different concentrations of the substrate. […] Substrate was used in six concentrations: […], 0.1 mM, 0.5 mM, 1 mM, 1.5 mM, and 2 mM. After the experiment, velocities were calculated and put on the graph (y-axis) against the concentration of the substrate (x-axis). From the Michaelis–Menten plot Vmax, KM, and α values were calculated for different concentrations of the inhibitor. Double-reciprocal plot (Lineweaver–Burk plot) were prepared to display the data.
The α values for different modes of reversible inhibition as well as their diagnostic signature on […]
The α value for compound 9 was calculated by GraphPad Prism software from the nonlinear regression curves using following equation for mixed- […]
v = Vmax*[S] / [S]*(1+ [I]/ αKi) + KM*(1+ [I]/Ki) (1) v – velocity of enzyme reaction. Vmax - maximum velocity (at infinite substrate concentration); Ki – dissociation constant for Enzyme-Inhibitor complex (in the enzymology literature other symbols can be used such as: Ki, Kii , KEI etc.); αKi – dissociation constant for Enzyme-Substrate-Inhibitor complex (in the literature also under the symbols: Ki’, Kis and KES); KM – Michaelis-Menten constant; [I]– concentration of the inhibitor; [S] – concentration of the substrate [Ref S1].
Table S1. Relation between inhibition modality, α value, and diagnostic signature on the double-reciprocal plots (i.e Lineweaver-Burk plot) [S2].
α Inhibition modality Diagnostic signature on […]
α = 1 (inhibitor binds to free enzyme lines converge at the x-axis and enzyme-substrate complex
(inhibitor can bind to free lines converge to the left of the α > 1 enzyme and enzyme-substrate y-axis and above the x-axis complex unequally), inhibitor’s affinity is higher for free enzyme
(inhibitor can bind to free
α < 1 enzyme and enzyme-substrate lines converge to the left of the complex unequally), inhibitor’s y-axis and below the x-axis affinity is higher for the enzyme- […]
α → ∞ (inhibitor and substrate compete lines converge at the y-axis for the same site of binding) […]
α → 0 and α > 0 (inhibitor binds only to the parallel lines

[4] = concentration used in kinetic studies

CC(C)(C)c1ccc(OCCCN2CCCCC2)cc1 [DL76, 1-(3-(4-tert-butylphenoxy)propyl)piperidine]
IC20 (hMAO B [1]; [4]): 7 nM | IC80 (hMAO B [1]; [4]): 164 nM | IC50 (hMAO B [1]; mean ± SEM of 2-5 independent experiments, p-tyramine 200 μM): 48 ± 15 nM | toxic effect against SH-SY5Y cells [2]: no toxic effect | IC50 (human MAO A): > 10000 nM | constant α (hMAO B [3]; calculated by GraphPad Prism from nonlinear regression, mixed-model inhibition): 4.6 | mode of hMAO B inhibition (hMAO B [3]; from Vmax and KM behaviour and Lineweaver-Burk plot): mixed mode inhibition | Vmax (RFU/min) (hMAO B [3]; inhibitor concentration 7 nM): 1628 RFU/min | Vmax (RFU/min) (hMAO B [3]; inhibitor concentration 48 nM): 1165 RFU/min | Vmax (RFU/min) (hMAO B [3]; inhibitor concentration 164 nM): 726.3 RFU/min
